Test results reported in ChEMBL document CHEMBL1145280, “Control of hepatitis C: a medicinal chemistry perspective” (J Med Chem, 2005).
Non-standard residues stand in square brackets, D forms with d. Residues, ends and D or L forms follow the SMILES beside them. *: point of attachment. Dip = N[C@H](C(=O)O)C(c1ccccc1)c1ccccc1; Hyp = O=C(O)[C@@H]1C[C@@H](O)CN1; Tic = O=C(O)[C@@H]1Cc2ccccc2CN1; X1 = O=C(O)C(=O)[C@H](CC(F)F)N*; Cha = N[C@@H](CC1CCCCC1)C(=O)O; Nle = CCCC[C@H](N)C(=O)O; Ahx = NCCCCCC(=O)O; Bn = c1ccc(C*)cc1

Molecular target: T1, NS3 (Hepatitis C virus, UniProt A3EZJ3)
Test: Inhibitory concentration against hepatitis C virus NS4A binding region of NS3 protease
Parameters: species or system Hepacivirus hominis
Conditions: not given

T1 sequence (A3EZJ3 whole entry): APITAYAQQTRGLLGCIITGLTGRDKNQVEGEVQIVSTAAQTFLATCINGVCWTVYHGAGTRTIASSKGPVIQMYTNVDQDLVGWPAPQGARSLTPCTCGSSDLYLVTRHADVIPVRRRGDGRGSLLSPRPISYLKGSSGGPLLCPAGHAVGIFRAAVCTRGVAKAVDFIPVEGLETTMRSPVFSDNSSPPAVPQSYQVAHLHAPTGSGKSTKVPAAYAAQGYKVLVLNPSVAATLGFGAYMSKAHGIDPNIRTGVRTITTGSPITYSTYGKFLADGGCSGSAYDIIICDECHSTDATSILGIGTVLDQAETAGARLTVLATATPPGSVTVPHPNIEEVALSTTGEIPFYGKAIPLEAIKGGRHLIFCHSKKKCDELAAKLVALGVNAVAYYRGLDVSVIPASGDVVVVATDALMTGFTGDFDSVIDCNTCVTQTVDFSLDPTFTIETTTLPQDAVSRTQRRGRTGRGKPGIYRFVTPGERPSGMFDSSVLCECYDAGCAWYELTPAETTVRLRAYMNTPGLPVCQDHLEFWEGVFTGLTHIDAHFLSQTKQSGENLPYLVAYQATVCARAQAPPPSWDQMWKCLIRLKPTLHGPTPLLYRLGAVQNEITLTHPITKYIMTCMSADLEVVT

IC50 [nM]	Molecule
200	CC[C@H](C)[C@@H](NC(=O)[C@H](NC(=O)[C@@H](CC(C)C)NC(=O)[C@@H](CO)NC(=O)CNC(=O)[C@H](CCCCN)NC(=O)CCCCCNC(=O)CCCCCNC(=O)[C@H](CS)NC(=O)[C@H](CS)NC(=O)[C@@H](NC(=O)[C@@H](NC(=O)[C@H](CC(=O)O)NC(=O)[C@@H](N)CCC(=O)O)C(C)C)C(C)C)C(C)C)C(=O)N[C@H](CCCN=C(N)N)C(=O)NCC(=O)N[C@@H](C(=O)N[C@@H](C(=O)N[C@@H](C(=O)N[C@@H](C(=O)N[C@H](CS)C(=O)O)C(C)C)C(C)C)[C@@H](C)CC)C(C)C
200	CC[C@H](C)[C@H](NC(=O)CNC(=O)[C@H](CCCN=C(N)N)NC(=O)[C@@H](NC(=O)[C@@H](NC(=O)[C@H](CC(C)C)NC(=O)[C@H](CO)NC(=O)CNC(=O)[C@H](CCCCN)NC(=O)CCCCCNC(=O)[C@H](CS)NC(=O)[C@H](CS)NC(=O)[C@@H](NC(=O)[C@@H](NC(=O)[C@H](CCC(=O)O)NC(=O)[C@@H](N)CC(=O)O)C(C)C)C(C)C)C(C)C)[C@@H](C)CC)C(=O)N[C@H](C(=O)N[C@H](C(=O)N[C@@H](CS)C(=O)N[C@@H](CCCCN)C(=O)O)C(C)C)C(C)C (H-DEVVCC[Ahx]KGSLVIRGIVVCK-OH)

System: Internal ribosome entry site (IRES)
Test: Inhibitory concentration against hepatitis C virus internal ribosomal entry site
Type: nucleic-acid assay, Hepacivirus hominis
Conditions: not given

IC50 [nM]	Molecule
2190	CN(C)c1ccc(Nc2ccc(N(C)C)cc2)cc1
1000	CCN(CC)c1ccc2[o+]c3cc(C)c(N)cc3nc2c1
> 10000	Nc1ccc2c(c1)Oc1ncc(N)cc1C(=O)N2
> 10000	CN(C)c1ccc2c(c1)Sc1cc(N(C)C)ccc1N2C(=O)c1ccccc1
20	Cc1cc2nc3ccc(N(C)C)cc3nc2cc1N
2860	Nc1ccc2nc3ccc(N)cc3[s+]c2c1 [THIONIN ACETATE]
> 10000	Nc1ccc2[nH]c3ccc(N)cc3c2c1
> 10000	Nc1ccc(Nc2ccc(N)cc2)cc1
> 10000	Nc1ccc2c(c1)NC(=O)c1cc(N)cnc1O2

Molecule	IC50 [nM]
CN(C)c1ccc(C(=O)c2ccc(N(C)C)cc2)cc1 [MICHLER'S KETONE]	> 10000

Molecular target: T1, NS3
Test: Inhibitory concentration against hepatitis C virus NS3 protease
Parameters: species or system Hepacivirus hominis
Conditions: not given

IC50 [µg/mL]	Molecule
6.4	CC(=O)OCCC/C(=C1/SC(=S)N(CC(=O)O)C1=O)c1ccc(Br)cc1

Same assay, conditions: read-out: IC50

IC50 [µM]	Molecule
0.033	CC(=O)N[C@@H](CC(=O)O)C(=O)N[C@@H](CCC(=O)O)C(=O)N[C@@H](CC1CCCCC1)C(=O)N[C@H](C(=O)N1C[C@H](OCc2ccccc2)C[C@H]1C(=O)N[C@@H](CS)C(=O)O)C(C)C (Ac-DE[Cha]V[Hyp](Bn)C-OH)
7	CCCC(=O)c1cc2c(c(O)c1C)C(=O)C(=O)c1c(O)cccc1-2
6.2	O=C(Nc1cc(Cl)ccc1Oc1ccc2ccccc2c1Cl)c1cc(Cl)cc(Br)c1O
6.5	O=C(Nc1ccc(Oc2ccc(Cl)c3ccccc23)c(Cl)c1)c1cc(Cl)ccc1NS(=O)(=O)c1ccc(Cl)cc1
12.6	O=C1C=C2C(=CCOC2OC(=O)c2cccc(Br)c2)O1 (stereo not drawn)
3	COc1ccc2c(O[C@@H]3C[C@H]4C(=O)N[C@]5(C(=O)O)C[C@H]5/C=C\CCCCC[C@H](NC(=O)OC5CCCC5)C(=O)N4C3)cc(-c3csc(NC(C)C)n3)nc2c1 [CILUPREVIR]
1.8	CCCC[C@H](NC(=O)[C@@H]1CCCN1C(=O)[C@H](CS)NC(=O)[C@H](CC1CCCCC1)NC(=O)[C@@H](NC(=O)[C@@H](NC(=O)[C@H](CCC(=O)O)NC(=O)[C@H](CC(=O)O)NC(C)=O)C(c1ccccc1)c1ccccc1)[C@@H](C)CC)C(=O)N[C@@H](CC(=O)O)C(=O)N[C@H](C(N)=O)C(C)C (Ac-DE[Dip]I[Cha]CP[Nle]DV-NH2)
5.8	CCCCCCCCCCCCCNC(=O)c1c(O)cc(O)c([N+](=O)[O-])c1O
71	Ac-DDIVPC-OH
0.013	C=C[C@H]1C[C@]1(NC(=O)[C@@H]1C[C@@H](Oc2cc(-c3ccccc3)nc3ccccc23)CN1C(=O)[C@@H](NC(=O)[C@@H](NC(C)=O)C1CCCCC1)C(C)C)C(=O)O
1	CCCC[C@H](NC(=O)[C@@H]1Cc2ccccc2CN1C(=O)[C@H](CS)NC(=O)[C@H](CC(C)C)NC(=O)[C@@H](NC(=O)[C@@H](NC(=O)[C@H](CCC(=O)O)NC(=O)[C@H](CCC(=O)O)NC(C)=O)C(C)C)C(C)C)C(=O)N[C@@H](CO)C(=O)N[C@@H](Cc1ccc(O)cc1)C(N)=O (Ac-EEVVLC[Tic][Nle]SY-NH2)
1.3	CC[C@H](C)[C@H](NC(=O)[C@@H](NC(=O)[C@H](CCC(=O)O)NC(=O)[C@H](CC(=O)O)NC(C)=O)C(c1ccccc1)c1ccccc1)C(=O)N[C@@H](CC1CCCCC1)C(=O)N[C@@H](CS)C(=O)N1CCC[C@H]1C(=O)N[C@@H](CC1CCCCC1)C(=O)N[C@@H](CC(=O)O)C(=O)N[C@H](C(N)=O)C(C)C (Ac-DE[Dip]I[Cha]CP[Cha]DV-NH2)
0.051	CC(=O)N[C@@H](CC(=O)O)C(=O)N[C@@H](CCC(=O)O)C(=O)N[C@@H](CC1CCCCC1)C(=O)N[C@H](C(=O)N1C[C@@H](OCc2ccccc2)C[C@H]1C(=O)NC1(C(=O)O)CC1)C(C)C
0.1	CCCC[C@H](NC(=O)[C@@H]1Cc2ccccc2CN1C(=O)[C@H](CS)NC(=O)[C@H](CC1CCCCC1)NC(=O)[C@@H](NC(=O)[C@@H](NC(=O)[C@H](CCC(=O)O)NC(=O)[C@H](CC(=O)O)NC(C)=O)C(c1ccccc1)c1ccccc1)[C@@H](C)CC)C(=O)N[C@@H](CO)C(=O)N[C@@H](Cc1ccc(O)cc1)C(N)=O (Ac-DE[Dip]I[Cha]C[Tic][Nle]SY-NH2)
1.7	CC[C@H](C)[C@H](NC(=O)OCc1ccccc1)C(=O)N[C@@H](CC(C)C)C(=O)N[C@@H](CC(F)F)C(=O)C(=O)O
1	CC[C@H](C)[C@H](NC(=O)OC(C)(C)C)C(=O)N[C@@H](CC(C)C)C(=O)N[C@@H](CC(F)F)C(=O)C(=O)O
7.2	CC(=O)OC1OCC=C2OC(=O)C=C21 (stereo not drawn)
15	CC(C)C[C@H](NC(=O)[C@H](CC(=O)O)NC(=O)[C@H](CC1CCCCC1)NC(=O)[C@@H]1CCCC[C@H]1C(=O)O)C(N)=O
3.2	O=C1NC(=S)S/C1=C/c1cc([N+](=O)[O-])ccc1Sc1ccc(Cl)cc1

Molecule	IC50 [µM]
O=C1C=C2C(=CCOC2O)O1 (stereo not drawn) [PATULIN]	3.8

Molecular target: T1, NS3
Test: Inhibitory concentration against hepatitis C virus helicase
Parameters: species or system Hepacivirus hominis
Conditions: not given

IC50 [nM]	Molecule
7000	c1cc(CN2CCC(C3=NC4CCCCC4N3)CC2)ccc1CN1CCC(C2=NC3CCCCC3N2)CC1 (stereo not drawn)
1500	O=C1NNC(=O)c2c(ncn2[C@H]2O[C@@H](COP(=O)(O)OP(=O)(O)OP(=O)(O)O)[C@H](O)[C@@H]2O)N1
750	COc1cccc2c1C(=O)c1c(O)c3c(c(O)c1C2=O)C[C@@](O)(C(=O)CO)C[C@@H]3O[C@H]1C[C@H](N)[C@@H](O)[C@H](C)O1 [EPIRUBICIN]
100	COC(=O)[C@@H]1c2cc3c(c(O)c2[C@@H](O[C@@H]2O[C@@H](C)[C@H](OC)[C@@](C)(OC)[C@H]2OC)C[C@]1(C)O)C(=O)c1c(O)cc2c(c1C3=O)O[C@@H]1O[C@@]2(C)[C@H](O)[C@@H](N(C)C)[C@@H]1O [NOGALAMYCIN]
700	O=C(CCCCC(=O)Nc1ccc(-c2nc3ccccc3[nH]2)cc1)Nc1ccc(-c2nc3ccccc3[nH]2)cc1
12000	Nc1nc(=O)c2c(ncn2C2O[C@H](CO)C(O)C2O)c(=O)[nH]1 (single isomer, unassigned)
550	N=c1nc(N)c2ncn([C@H]3O[C@@H](COP(=O)(O)OP(=O)(O)OP(=O)(O)O)[C@H](O)[C@@H]3O)c2c(N)n1
5500	Nc1nc(=O)c2c(ncn2COCCOCc2ccccc2)c(=O)[nH]1
> 1000	CC(=O)O[C@H]1C(=O)[C@@]2(C)[C@H]([C@H](OC(=O)c3ccccc3)[C@]3(O)C[C@H](OC(=O)[C@H](O)[C@@H](NC(=O)c4ccccc4)c4ccccc4)C(C)=C1C3(C)C)[C@]1(OC(C)=O)CO[C@@H]1C[C@@H]2O [PACLITAXEL]

Molecule	IC50 [nM]
OC[C@H]1O[C@@H](n2nnc3cc(Cl)c(Cl)cc32)[C@H](O)[C@@H]1O	1500
NC(=O)c1ncn([C@@H]2O[C@H](CO[P@@](=O)(O)O[P@](=O)(O)OP(=O)(O)O)[C@@H](O)[C@H]2O)n1 [RTP]	180000
NC(=O)c1ncn([C@@H]2O[C@H](COP(=O)(O)OP(=O)(O)O)[C@@H](O)[C@H]2O)n1	250000
Brc1c(Br)c(Br)c2[nH]nnc2c1Br [TETRABROMOBENZOTRIAZOLE]	20000

Molecular target: Genome polyprotein (Hepatitis C virus genotype 1a (isolate 1) (HCV), UniProt P26664)
Test: Inhibitory concentration against hepatitis C virus polymerase
Parameters: species or system Hepacivirus hominis
Conditions: not given

Chain of Genome polyprotein (P26664 2421-3011 limits assumed): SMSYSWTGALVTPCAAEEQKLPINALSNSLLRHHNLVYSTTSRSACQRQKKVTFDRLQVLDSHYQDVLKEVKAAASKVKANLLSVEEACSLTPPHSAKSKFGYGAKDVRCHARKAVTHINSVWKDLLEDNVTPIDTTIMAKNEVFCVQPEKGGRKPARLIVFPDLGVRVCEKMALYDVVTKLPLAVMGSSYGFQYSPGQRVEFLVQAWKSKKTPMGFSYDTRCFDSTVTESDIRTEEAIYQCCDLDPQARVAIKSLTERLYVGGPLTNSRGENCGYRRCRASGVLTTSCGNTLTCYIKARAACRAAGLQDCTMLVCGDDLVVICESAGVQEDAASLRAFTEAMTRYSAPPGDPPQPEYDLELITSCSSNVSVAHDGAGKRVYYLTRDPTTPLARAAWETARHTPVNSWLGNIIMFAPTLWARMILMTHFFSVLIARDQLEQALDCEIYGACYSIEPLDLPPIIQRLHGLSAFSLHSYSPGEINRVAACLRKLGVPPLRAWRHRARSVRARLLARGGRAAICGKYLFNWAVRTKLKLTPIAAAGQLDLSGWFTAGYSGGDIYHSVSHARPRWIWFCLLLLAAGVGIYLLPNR

IC50 [nM]	Molecule
< 10000	O=C(O)c1ccc2c(c1)nc(-c1ccc(OCc3cc(C(=O)N4CCC(O)CC4)ccc3-c3ccc(Cl)cc3)cc1F)n2C1CCCCC1
350	N#Cc1ccc(Br)cc1Oc1ccccc1C(=O)CC(=O)C(=O)O
4300	O=C(O)c1ccc2c(c1)nc(-c1ccccn1)n2C1CCCCC1
< 1000	O=C(N[C@@H](Cc1c[nH]c2ccccc12)C(=O)O)c1ccc2c(c1)nc(-c1ccoc1)n2C1CCCCC1
100	O=C(NCc1ccccc1Cl)Nc1ccsc1-c1nc(O)c(O)c(C(=O)O)n1
45	N#Cc1c(Cl)cc(Cl)cc1-c1cccc(C(=O)CC(=O)C(=O)O)c1
110	N#Cc1c(Cl)cccc1-c1cccc(C(=O)CC(=O)C(=O)O)c1
100	N#Cc1ccc(Br)cc1-c1cccc(C(=O)CC(=O)C(=O)O)c1
5700	O=C(O)C(=O)CC(=O)c1ccccc1
800	CC(C)CCn1c(=O)c(C2=NS(=O)(=O)c3ccccc3N2)c(O)c2ccccc21
12000	COc1ccc(CCNC(=O)c2ccc3c(c2)nc(-c2ccccn2)n3C2CCCCC2)cc1OC

Molecular target: T1, NS3
Test: Inhibitory constant against hepatitis C virus NS3 protease
Parameters: species or system Hepacivirus hominis
Conditions: not given

Ki [nM]	Molecule
600	Ac-DEMEEC-OH
40	CC(=O)N[C@@H](CC(=O)O)C(=O)N[C@@H](CCC(=O)O)C(=O)N[C@H](C(=O)N[C@@H](CCC(=O)O)C(=O)N[C@@H](CC1CCCCC1)C(=O)N[C@@H](CS)C(=O)O)C(c1ccccc1)c1ccccc1 (Ac-DE[Dip]E[Cha]C-OH)
2200	O=C(O)[C@H](Cc1ccccc1)N(Cc1ccc(-c2cc3ccccc3o2)s1)C(=O)c1ccc(Cl)cc1Cl
10	CC(=O)N[C@@H](CC(=O)O)C(=O)N[C@@H](CCC(=O)O)C(=O)N[C@H](C(=O)N[C@@H](CCC(=O)O)C(=O)N[C@@H](CC1CCCCC1)C(=O)N[C@@H](CC(F)F)C(=O)C(=O)O)C(c1ccccc1)c1ccccc1 (Ac-DE[Dip]E[Cha]-X1)

Molecule	Ki [nM]
CC(C)COC(=O)N[C@@H](CCC(=O)O)C(=O)N[C@@H](CC(C)C)C(=O)N[C@@H](CC(F)F)C(=O)NCCc1ccc(C(=O)O)cc1Cl	600
O=C(O)[C@H](Cc1ccccc1)N(Cc1cccc(C(F)(F)F)c1)C(=O)c1ccc(Cl)cc1Cl	2200
